Measured values taken from US12673038B2, “Antimycotic methoxyflavone and fluconazole combination for inhibiting cryptococcus” (Karl-Franzens-Universität Graz, priority 2019, dated 2026).

system: C. albicans; experiment: In vitro antifungal activity of flavone in combination with azoles, growth via OD490; format: cell-based, Candida albicans; conditions: OD490, flavone plus azole vs each alone

Row | Structure (SMILES) | enhancement of the antifungal activity of azoles in the presence of the flavone
1 | COc1ccc2c(=O)cc(-c3ccccc3)oc2c1 [7-MF, 7-methoxyflavone] | enhancement of the antifungal activity
2 | COc1cc(OC)c2c(=O)cc(-c3ccc(OC)c(OC)c3)oc2c1 [3′,4′,5,7-TMF, 3′,4′,5,7-tetrametoxyflavone] | enhancement of the antifungal activity
3 | COc1cc(-c2cc(=O)c3c(OC)c(OC)c(OC)cc3o2)cc(OC)c1OC [3′,4′,5′,5,6,7-HMF, 3′,4′,5′,5,6,7-hexymethoxyflaovne] | enhancement of the antifungal activity
4 | O=c1cc(-c2ccccc2)oc2ccc3ccccc3c12 [5,6-BF, 5,6-benzoflavone] | enhancement of the antifungal activity
5 | O=c1cc(-c2ccccc2)oc2c1ccc1ccccc12 [7,8-BF, 7,8-benzoflavone] | enhancement of the antifungal activity
6 | COc1ccccc1-c1cc(=O)c2ccccc2o1 [2′-MF, 2′-methoxyflavone] | enhancement of the antifungal activity

system: fungi including Aspergillus and Fusarium species; experiment: not given; conditions: Weidenbörner et al., Mycol. Res. 101 (1997); cited from earlier work

Row | Structure (SMILES) | antifungal effect
7 | O=c1cc(-c2ccccc2)oc2ccccc12 [flavone] | displays an antifungal effect
